Assays:
[1] = molecular target: T1, SHP2 protein (Homo sapiens, UniProt Q06124); experiment: Degradation activity on SHP2 protein in NCI-H358 cells (Western blot, DC50); assay type: cell-based; set-up: endogenous in cells; settings: read-out: Degradation activity for differenct cell lines NCI-H358 (DC50)
T1 sequence (Q06124 1-593): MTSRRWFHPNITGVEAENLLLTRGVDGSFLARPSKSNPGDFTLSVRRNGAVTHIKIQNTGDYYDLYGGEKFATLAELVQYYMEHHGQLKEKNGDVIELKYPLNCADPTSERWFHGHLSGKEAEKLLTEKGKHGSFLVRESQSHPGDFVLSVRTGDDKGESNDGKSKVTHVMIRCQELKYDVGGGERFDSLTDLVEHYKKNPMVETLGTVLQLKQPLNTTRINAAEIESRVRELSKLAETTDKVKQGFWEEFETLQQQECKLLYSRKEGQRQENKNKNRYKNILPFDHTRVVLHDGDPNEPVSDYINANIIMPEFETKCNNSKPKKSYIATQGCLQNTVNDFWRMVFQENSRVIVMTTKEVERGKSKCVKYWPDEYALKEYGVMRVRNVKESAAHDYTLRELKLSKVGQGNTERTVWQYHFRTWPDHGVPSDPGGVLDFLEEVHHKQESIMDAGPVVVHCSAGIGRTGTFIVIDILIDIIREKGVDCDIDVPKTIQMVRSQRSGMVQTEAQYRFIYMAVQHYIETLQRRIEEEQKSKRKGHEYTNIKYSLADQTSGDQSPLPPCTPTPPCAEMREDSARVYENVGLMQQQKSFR
Method: (1) MV-411 cells were cultured in the cell culture medium, and then well-growing cells were selected and inoculated in a 12-well plate, with 1 mL/well and 1×10^6 cells/well. The plate was incubated overnight in a 5% CO2 cell incubator at 37° C.
(2) 10 mM storage solution of each drug was prepared using dimethylsulfoxide (DMSO). The stock solution was diluted gradually with DMSO before use, and then 1 μL of the compound solution was added to the cell culture well (to ensure that the DMSO concentration in the culture system was […]), so that the final drug concentration is 100 nM, 10 nM, 3 nM, 1 nM, 0.3 nM, and 0.1 nM. Two wells were set for each concentration. The plate was gently shaken and mixed. Additionally, negative control wells (containing an equal amount of DMSO) and positive control wells were included.
(3) After 24 hours of cultivation, the cells were lysed using RIPA cell lysate, and the proteins were extracted. The protein concentration was measured using a BCA assay kit. 5× concentrated protein buffer was loaded, heated at 100° C. for 5 min, and then the sample was stored at −20° C.
(4) For each well, 30 μg of protein was loaded to polyacrylamide gel for electrophoresis.
(5) The protein was transferred from polyacrylamide gel to PVDF membrane, and sealed at room temperature with 5% skimmed milk for 1 h, which was then incubated with the primary antibodies (Anti-SHP2 rabbit mAb and Anti-GAPDH rabbit mAb) at 4° C. overnight. The membrane was washed three times with TBST solution, 10 minutes for each time. After that, the membrane was incubated with the secondary antibodies (horseradish peroxidase labeled goat anti-rabbit IgG) at room temperature for 2 h, and then washed three times with TBST solution, 10 minutes for each time, followed by exposure.
(6) The images were analyzed with Image J grayscale, and the degradation ratio of protein bands in the test group was calculated, based on the negative control group (DMSO) (100%).
(7) Using the Dose-response-inhibition equation in the data processing software GraphPad Prism 8, the DC50 value was obtained (which represents the drug concentration corresponding to 50% degradation of the target protein).
Using similar methods and different cell lines, the degradation activity of the compound according to the present invention on SHP2 protein of different cell lines was tested under suitable culture conditions.

[2] = molecular target: T1, SHP2 protein; experiment: Degradation activity on SHP2 protein in MIA Paca-2 cells (Western blot, DC50); assay type: cell-based; set-up: endogenous in cells; host or cells: MIA Paca-2 cells; settings: read-out: Degradation activity for differenct cell lines MIA Paca-2 (DC50)
Procedure, shortened: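 DC50 is the concentration degrading 50% of SHP2 relative to DMSO control. It was derived by fitting Western blot band densitometry (anti-SHP2, GAPDH reference) from cells exposed 24 h to 0.1–100 nM compound in 0.1% DMSO.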

| DC50 [1] [nM] | DC50 [2] [nM] | Structure (SMILES) |
| --- | --- | --- |
| < 100 | < 100 | C[C@@H]1CN(c2ccc(C(=O)NCc3ccc4c(c3)CN(C3CCC(=O)NC3=O)C4=O)nn2)CCN1CCCCCCCCC(=O)Nc1cccc(Sc2cnc(N3CCC(C)(N)CC3)cn2)c1 (some centres unmarked) [Compound 252] |
| < 100 |  | CC1(N)CCN(c2cnc(Sc3cccc(NC(=O)CCCCCCCOC4CCN(c5ccc(C(=O)NCc6ccc7c(c6)CN(C6CCC(=O)NC6=O)C7=O)nn5)CC4F)c3)cn2)CC1 (centres unmarked) [Compound 147] |
| < 100 | < 100 | CC1(N)CCN(c2cnc(Sc3cccc(NC(=O)CCN4CCN(c5ccc(C(=O)NCc6ccc7c(c6)CN(C6CCC(=O)NC6=O)C7=O)nn5)CC4)c3)cn2)CC1 (centres unmarked) [Compound 248] |
| < 100 | < 100 | CC1CN(CCCCCCCCC(=O)Nc2cccc(Sc3cnc(N4CCC(C)(N)CC4)cn3)c2)CC=C1c1ccc(C(=O)NCc2ccc3c(c2)CN(C2CCC(=O)NC2=O)C3=O)nc1 (centres unmarked) [Compound 243] |
| < 100 | < 100 | CCC1(N)CCN(c2cnc(Sc3cccc(NC(=O)CCCCCCCCN4CCN(c5ccc(C(=O)NCc6ccc7c(c6)CN(C6CCC(=O)NC6=O)C7=O)nn5)CC4C(F)(F)F)c3)cn2)CC1 (centres unmarked) [Compound 226] |
| > 1000 |  | Cc1ncsc1-c1ccc([C@H](C)NC(=O)[C@@H]2C[C@@H](O)CN2C(=O)[C@@H](NC(=O)c2cnc(N3CC(OCC(=O)Nc4cccc(Sc5cnc(N6CCC(C)(N)CC6)cn5)c4)C3)nc2)C(C)(C)C)cc1 [Compound 240] |
| < 100 | < 100 | Cn1nc(C(=O)NCc2ccc3c(c2)CN(C2CCC(=O)NC2=O)C3=O)cc1C1=CCN(CCCCCCCCC(=O)Nc2cccc(Sc3cnc(N4CCC(C)(N)CC4)cn3)c2)CC1 (centres unmarked) [Compound 246] |
| < 100 | < 100 | CC1(N)CCN(c2cnc(Sc3cccc(NC(=O)c4ccc(N5CCC(N6CC=C(c7cnc(C(=O)NCc8ccc9c(c8)CN(C8CCC(=O)NC8=O)C9=O)c(Cl)c7)CC6)CC5)cc4)c3)cn2)CC1 (centres unmarked) [Compound 400] |
| < 100 | < 100 | COc1cc(C2=CCN(C3CCN(c4ccc(C(=O)Nc5cccc(Sc6cnc(N7CCC(C)(N)CC7)cn6)c5)cc4)CC3)CC2)ccc1C(=O)NCc1ccc2c(c1)CN(C1CCC(=O)NC1=O)C2=O (centres unmarked) [Compound 377] |
| < 100 | < 100 | C[C@@H]1CN(CCCCCCCCC(=O)Nc2cccc(Sc3cnc(N4CCC(C)(N)CC4)cn3)c2)CCN1c1ccc(C(=O)NCc2ccc3c(c2)CN(C2CCC(=O)NC2=O)C3=O)nn1 (some centres unmarked) [Compound 239] |
| < 100 | 100 to 1000 | Cc1cc(N2CCC(N3CC=C(c4cnc(C(=O)NCc5ccc6c(c5)CN(C5CCC(=O)NC5=O)C6=O)c(Cl)c4)CC3)CC2)ccc1C(=O)Nc1cccc(Sc2cnc(N3CCC(C)(N)CC3)cn2)c1 (centres unmarked) [Compound 443] |
| < 100 |  | CC1(N)CCN(c2cnc(Sc3cccc(NC(=O)CCCCCCCCN4C5CCC4CC(c4ccc(C(=O)NCc6ccc7c(c6)CN(C6CCC(=O)NC6=O)C7=O)nn4)C5)c3)cn2)CC1 (single isomer, unassigned) [Compound 233] |
| < 100 | < 100 | CC1(N)CCN(c2cnc(Sc3cccc(NC(=O)c4ccc(N5CCC(N6CC=C(c7ccc(C(=O)NCc8ccc9c(c8)CN(C8CCC(=O)NC8=O)C9=O)nc7)C6)CC5)c(F)c4)c3)cn2)CC1 (centres unmarked) [Compound 410] |
| < 100 | < 100 | Cc1ncsc1-c1ccc([C@H](C)NC(=O)[C@@H]2C[C@@H](O)CN2C(=O)[C@@H](NC(=O)c2cnc(N3CCN(CCCCCC(=O)Nc4cccc(Sc5cnc(N6CCC(C)(N)CC6)cn5)c4)CC3)nc2)C(C)(C)C)cc1 [Compound 220] |
| < 100 | < 100 | CC1(N)CCN(c2cnc(Sc3cccc(NC(=O)CCCCCCCCN4CCC(c5ccc(C(=O)NCc6ccc7c(c6)CN(C6CCC(=O)NC6=O)C7=O)nn5)CC4)c3)cn2)CC1 (centres unmarked) [Compound 218] |
| < 100 | < 100 | CC1(N)CCN(c2cnc(Sc3cccc(NC(=O)c4ccc(N5CCC(N6CC=C(c7ccc(C(=O)NCc8ccc9c(c8)CN(C8CCC(=O)NC8=O)C9=O)cc7)CC6)CC5)cc4)c3)cn2)CC1 (centres unmarked) [Compound 446] |
| < 100 | < 100 | CC(CCCCCCCC(=O)Nc1cccc(Sc2cnc(N3CCC(C)(N)CC3)cn2)c1)N1CC=C(c2ccc(C(=O)NCc3ccc4c(c3)CN(C3CCC(=O)NC3=O)C4=O)nc2)C(C)(C)C1 (centres unmarked) [Compound 245] |
| < 100 | < 100 | CC1(N)CCN(c2cnc(Sc3cccc(NC(=O)c4ncc(N5CCC(N6CCN(c7ccc(C(=O)NCc8ccc9c(c8)CN(C8CCC(=O)NC8=O)C9=O)nc7)CC6)CC5)cn4)c3)cn2)CC1 (centres unmarked) [Compound 451] |
| < 100 | < 100 | CC1(N)CCN(c2cnc(Sc3cccc(NC(=O)CCCCCCCCN4C5C=C(c6ccc(C(=O)NCc7ccc8c(c7)CN(C7CCC(=O)NC7=O)C8=O)nn6)CC4CC5)c3)cn2)CC1 (centres unmarked) [Compound 219] |
| < 100 | < 100 | CC1(N)CCN(c2cnc(Sc3cccc(NC(=O)CCCCCCCCN4CCN(c5ccc(C(=O)NCc6ccc7c(c6)CN(C6CCC(=O)NC6=O)C7=O)nn5)C[C@@H]4CO)c3)cn2)CC1 (some centres unmarked) [Compound 251] |
| < 100 | < 100 | CC1(N)CCN(c2cnc(Sc3cccc(NC(=O)CCCCCCN4CC5(CC=C(c6ccc(C(=O)NCc7ccc8c(c7)CN(C7CCC(=O)NC7=O)C8=O)nc6)CC5)C4)c3)cn2)CC1 (centres unmarked) [Compound 217] |
| < 100 | < 100 | Cc1cc(C(=O)Nc2cccc(Sc3cnc(N4CCC(C)(N)CC4)cn3)c2)ccc1N1CCC(N2CC=C(c3cnc(C(=O)NCc4ccc5c(c4)CN(C4CCC(=O)NC4=O)C5=O)c(F)c3)CC2)CC1 (centres unmarked) [Compound 439] |
| < 100 | < 100 | Cc1ncsc1-c1ccc([C@H](C)NC(=O)[C@@H]2C[C@@H](O)CN2C(=O)[C@@H](NC(=O)c2cnc(N3CCN(CCCCCCC(=O)Nc4cccc(Sc5cnc(N6CCC(C)(N)CC6)cn5)c4)CC3)nc2)C(C)(C)C)cc1 [Compound 241] |
| < 100 | 100 to 1000 | CC1(N)CCN(c2cnc(Sc3cccc(NC(=O)c4ccc(N5CCC(N6CC=C(c7ncc(C(=O)NCc8ccc9c(c8)CN(C8CCC(=O)NC8=O)C9=O)cn7)CC6)CC5)cc4)c3)cn2)CC1 (centres unmarked) [Compound 370] |
| < 100 | 100 to 1000 | CC1(N)CCN(c2cnc(Sc3cccc(NC(=O)c4ccc(N5CCC(N6CC=C(c7ccc(C(=O)NCc8ccc9c(c8)CN(C8CCC(=O)NC8=O)C9=O)nc7)CC6)CC5)cc4F)c3)cn2)CC1 (centres unmarked) [Compound 405] |
| < 100 | < 100 | CC1(N)CCN(c2cnc(Sc3cccc(NC(=O)c4ccc(N5CCC(N6CC=C(c7cnc(C(=O)NCc8ccc9c(c8)CN(C8CCC(=O)NC8=O)C9=O)cc7Cl)CC6)CC5)cc4)c3)cn2)CC1 (centres unmarked) [Compound 399] |
| < 100 |  | CC1(N)CCN(c2cnc(Sc3cccc(NC(=O)CCCCCCCCN4CCc5cc(C(=O)NCc6ccc7c(c6)CN(C6CCC(=O)NC6=O)C7=O)cnc5C4)c3)cn2)CC1 (centres unmarked) [Compound 235] |
| < 100 |  | CC1(N)CCN(c2cnc(Sc3cccc(NC(=O)CCCCCCCCN4CCN(c5ccc(C(=O)NCc6ccc7c(c6)CN(C6CCC(=O)NC6=O)C7=O)nn5)CC4C(F)(F)F)c3)cn2)CC1 (centres unmarked) [Compound 225] |
| < 100 |  | CC1(N)CCN(c2cnc(Sc3cccc(NC(=O)CCCCCCCCN4C5CCC4CC(c4ccc(C(=O)NCc6ccc7c(c6)CN(C6CCC(=O)NC6=O)C7=O)nn4)C5)c3)cn2)CC1 (single isomer, unassigned) [Compound 234] |
| < 100 |  | CC1(N)CCN(c2cnc(Sc3cccc(NC(=O)CCCCOc4ccc(N5CCN(c6ccc(C(=O)NCc7ccc8c(c7)CN(C7CCC(=O)NC7=O)C8=O)nn6)CC5)cc4)c3)cn2)CC1 (centres unmarked) [Compound 236] |

From patent publication US20240383908A1, “SYNTHESIS AND APPLICATION OF PHOSPHATASE DEGRADER” (HINOVA PHARMACEUTICALS INC., priority 2021, published 2024)
